The values below come from patent US20090005270A1 (priority 2005, published 2009).

The conditions of data set [1]: cited from earlier work.
For data set [2] the following is noted: poor metabolizers, 15 mg dose; cited from earlier work.
The conditions of data set [3]: in vivo; cited from earlier work.
For data set [4], the target named is T1, human recombinant CYP2A6 (Homo sapiens, UniProt P10635). The data set can be described thus: biochemical.
Another data set addresses human recombinant CYP3A4 (Homo sapiens, UniProt P08684). The data set can be described thus: Inhibition of dibenzylfluorescein metabolism by cDNA-expressed CYP3A4 (fluorimetric). The conditions noted are these: read-out: IC50 (concentration that yields 50% inhibition of the metabolism of dibenzyl-fluorescein), dibenzyl-fluorescein 5 · 10^−7 M.
The target of data set [5] is T1, human recombinant CYP2A6. The following applies: recombinant enzyme.

Read-outs that look alike come from different tables or passages of the source.

T1 sequence (P10635 whole entry): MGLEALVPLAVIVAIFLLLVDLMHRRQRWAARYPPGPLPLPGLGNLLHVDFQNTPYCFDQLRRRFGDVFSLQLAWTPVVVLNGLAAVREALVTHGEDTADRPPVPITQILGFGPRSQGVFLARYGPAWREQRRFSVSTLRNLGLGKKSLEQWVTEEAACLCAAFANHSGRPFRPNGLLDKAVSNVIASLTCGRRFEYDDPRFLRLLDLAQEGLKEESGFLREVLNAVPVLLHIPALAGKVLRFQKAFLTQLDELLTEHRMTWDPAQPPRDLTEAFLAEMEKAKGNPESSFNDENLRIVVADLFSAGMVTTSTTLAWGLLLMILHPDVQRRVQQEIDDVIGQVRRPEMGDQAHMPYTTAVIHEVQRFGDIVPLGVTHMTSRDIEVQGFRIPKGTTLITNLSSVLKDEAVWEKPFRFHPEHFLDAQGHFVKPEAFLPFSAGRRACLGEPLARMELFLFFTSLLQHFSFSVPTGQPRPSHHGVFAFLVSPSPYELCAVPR
Sequence of human recombinant CYP3A4 (P08684 whole entry): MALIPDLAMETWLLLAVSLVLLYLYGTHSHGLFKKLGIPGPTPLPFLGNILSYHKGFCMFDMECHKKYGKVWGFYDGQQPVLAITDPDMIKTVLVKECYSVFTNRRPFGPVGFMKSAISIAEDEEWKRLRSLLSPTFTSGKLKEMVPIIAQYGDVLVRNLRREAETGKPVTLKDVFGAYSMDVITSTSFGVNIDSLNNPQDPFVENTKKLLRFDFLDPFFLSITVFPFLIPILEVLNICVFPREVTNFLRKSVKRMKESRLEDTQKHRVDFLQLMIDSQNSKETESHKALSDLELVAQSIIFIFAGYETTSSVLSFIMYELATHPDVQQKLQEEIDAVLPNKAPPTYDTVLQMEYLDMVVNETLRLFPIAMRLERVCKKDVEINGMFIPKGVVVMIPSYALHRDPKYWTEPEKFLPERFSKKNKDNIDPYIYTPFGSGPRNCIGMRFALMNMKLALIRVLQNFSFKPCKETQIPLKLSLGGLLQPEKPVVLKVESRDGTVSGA

As to `Br.COc1ccc2c(c1)[C@@]13CCCC[C@H]1[C@@H](C2)N(C)CC3.O` [Dextromethorphan, 3 Methoxy-17-methylmorphinan hydrobromide monohydrate], the plasma level entry in data set [1] (fast metabolizers, 30 mg dose, four hours post ingestion) was “less than 5 ng/mL”; in data set [1] (intermediate metabolizers, oral 30 mg, 4 hours), 10 to 20 ng/mL; in data set [1] (intermediate metabolizers, oral 30 mg, 24 hours postingestion), “less than 5 ng/mL”; in data set [1] (oral 30 mg, 4 hours (continues the poor metabolizers passage of b121)) it was “greater than 10 ng/mL”; in data set [1] (oral 30 mg, 24 hours (continues the poor metabolizers passage of b121)), “greater than 5 ng/mL”. For the same molecule, the “ratio of metabolite to parent drug in 8 hour urine sample” value in data set [2] was 10 to 1. Besides, in data set [3], the “part of the dose forming minor metabolites (D-methoxymorphinane, D-hydroxmorphinane)” value is “Less than 15%”. Besides, the IC50 at human recombinant CYP2A6 [4] came out at 1820 nM.

For the molecule `COc1ccc(CCN(CCCC(C#N)(c2ccc(OC)c(OC)c2)C(C)C)CC(F)(F)F)cc1OC` (stereo not shown) [N-(2,2,2-trifluoroethyl)norverapamil], the IC50 on human recombinant CYP3A4 worked out at 1930 nM.

As for `CN1CC[C@]23CCCC[C@H]2[C@H]1Cc1ccc(OCC(F)(F)F)cc13` [O-(2,2,2-trifluoroethyl)-N-methylmorphinan], the IC50 at human recombinant CYP2A6 [5] worked out at 425 nM.
